How the values were obtained:
Cavia porcellus [1] = species: Cavia porcellus; experiment: Adjuvant activity was determined by the ability of compound to stimulate delayed hypersensitivity by intradermal injection of 10 ug of ovalbumin after 48 hr in guinea pigs; type: functional
Cavia porcellus [2] = species: Cavia porcellus; experiment: Antibody response to the compound was determined in guinea pigs; type: functional

Row | SMILES | DTH (Cavia porcellus [1]) | Antibody response (Cavia porcellus [2])
1 | CC(=O)N[C@H]1C(O)O[C@H](CO)[C@@H](O)[C@@H]1O[C@H](C)C(=O)N[C@@H](C)C(=O)N[C@H](CCC(=O)O)C(N)=O (stereo partly drawn) [MURAMYL DIPEPTIDE] | 10.6 | 82.49
2 | COc1ccc2c(c1)Oc1cc(O)ccc1/C2=C1C=C/C(=N/c2nc(O)nc(OCC3OC(O)C(NC(C)=O)C(O[C@H](C)C(=O)N[C@@H](C)C(=O)N[C@H](CCC(=O)O)C(N)=O)C3O)n2)C=C\1C(=O)O (stereo partly drawn) | 11.5 | 123.34
3 | COc1ccc2c(c1)Oc1cc(O)ccc1/C2=C1C=C/C(=N/c2nc(O)nc(NCCCC[C@H](NC(=O)CC[C@@H](NC(=O)[C@H](C)NC(=O)[C@@H](C)OC3C(O)C(CO)OC(O)C3NC(C)=O)C(N)=O)C(=O)O)n2)C=C\1C(=O)O (stereo partly drawn) | 20.2 | 192
4 | COc1ccc2c(c1)Oc1cc(O)ccc1/C2=C1C=C/C(=N/c2nc(O)nc(NCCCC[C@H](NC(=O)[C@@H](C)OC3C(O)C(CO)OC(O)C3NC(C)=O)C(=O)N[C@H](CCC(=O)O)C(N)=O)n2)C=C\1C(=O)O (stereo partly drawn) | 2.9 | 17.6

— ChEMBL document CHEMBL1124282, “Synthesis of fluorescent muramyl dipeptide congeners. 2” (1988)
